According to patent US11504342B2, “Transmucosal film composition and methods of making and using the same” (Avior, Inc., priority 2018, dated 2022):

Assay: Solubility evaluation in combinations of solvent systems
Format: physicochemical
Procedure: In addition, the solubility of nalmefene in varying concentrations was evaluated using different combinations of solvent systems. The solvent systems included combinations of polar solvents with different surface active agents. Exemplary surface active agents included: Tween 20, Tween 80, […]® 34/44, KOLLIPHOR® HS 15, SOLUTOL® NF, LABRAFIL® M2125 CS and LABRAFIL® M1944 CS.

Measured: Observation (solubility)

C=C1CC[C@@]2(O)[C@H]3Cc4ccc(O)c5c4[C@@]2(CCN3CC2CC2)[C@H]1O5 [nalmefene]
Completely Soluble,: ID 1, Ethanol:Water 75:25, nalmefene 200 mg/mL | ID 2 (second), Ethanol:Water:Propylene Glycol 82.5:12.5:5, nalmefene 200 mg/mL | ID 2, Ethanol:Water:Tween 20 75:24.5:0.5, nalmefene 250 mg/mL | ID 3, Ethanol:Water:Propylene Glycol 68:22:10, nalmefene 350 mg/mL | ID 5, Ethanol:Water:Propylene Glycol:Tween 80 70:25:4:1, nalmefene 350 mg/mL | ID 6, Ethanol:Water:Glycerine 70:20:10, nalmefene 300 mg/mL | ID 7, Ethanol:Water:Gelucire 34/14 75:20:5, nalmefene 200 mg/mL | ID 8, Ethanol:Water:Labrafil M2125 CS 80:17.5:2.5, nalmefene 200 mg/mL | ID 9, Ethanol:Water:Labrafil M1944 CS 80:17.5:2.5, nalmefene 200 mg/mL
